Target: T1, thiaminase II (TenA) (Bacillus subtilis, UniProt P25052)
T1 sequence (P25052 1-236): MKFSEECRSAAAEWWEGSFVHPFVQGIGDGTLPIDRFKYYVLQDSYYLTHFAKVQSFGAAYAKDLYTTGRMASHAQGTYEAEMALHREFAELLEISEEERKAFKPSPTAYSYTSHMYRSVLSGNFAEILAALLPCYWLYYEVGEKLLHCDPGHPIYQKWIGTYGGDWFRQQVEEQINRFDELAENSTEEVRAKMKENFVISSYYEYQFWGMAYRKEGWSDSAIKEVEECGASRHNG
Assay: nhPHIP hyperpolarized NMR of iridium hydride signals in reverse micelles; agrees with a titration of TenA with ABAP (KD […])
Type: binding

Kd: 39.7 ± 8.9 µM
SMILES: Nc1ccnc(NCc2ccccc2)n1 [L, 4-amino-2-benzylaminopyrimidine]
